Laboratory results taken from ChEMBL document CHEMBL1148288, “A new aliphatic amino prodrug system for the delivery of small molecules and proteins utilizing novel PEG derivatives” (J Med Chem, 2004).
Counter-ions that a name gives are not always drawn.

Test system: P388
Assay: In vitro inhibitory activity against cancerous P388 cell line
Format: functional, cell-based
Details: Mus musculus

Row | Structure (SMILES) | IC50 [µM]
1 | COCCOCCOC(=O)NC(C)C(=O)OCCN(CCOC(=O)C(C)NC(=O)OCCOCCOC)CC(=O)NC(=O)[C@@]1(O)Cc2c(O)c3c(c(O)c2[C@H](OC2CC(N)C(O)C(C)O2)C1)C(=O)c1c(OC)cccc1C3=O (stereo not given in full) | 0.316
2 | COCCOCCOC(=O)NCC(=O)OCCN(CCOC(=O)CNC(=O)OCCOCCOC)CC(=O)NC(=O)[C@@]1(O)Cc2c(O)c3c(c(O)c2[C@H](OC2CC(N)C(O)C(C)O2)C1)C(=O)c1c(OC)cccc1C3=O (stereo not given in full) | 0.428
3 | COCCOCCOC(=O)NCCOCCOCCNC(=O)COCC(=O)OCCN(CCOC(=O)COCC(=O)NCCOCCOCCNC(=O)OCCOCCOC)CC(=O)NC(=O)[C@@]1(O)Cc2c(O)c3c(c(O)c2[C@H](OC2CC(N)C(O)C(C)O2)C1)C(=O)c1c(OC)cccc1C3=O (stereo not given in full) | 0.455
4 | COc1cccc2c1C(=O)c1c(O)c3c(c(O)c1C2=O)C[C@@](O)(C(=O)CO)C[C@@H]3O[C@H]1C[C@H](N)[C@H](O)[C@H](C)O1 [DOXORUBICIN HYDROCHLORIDE] | 0.017
5 | COCCOCCOC(=O)NCCOCCOCC(=O)OCCN(CCOC(=O)COCCOCCNC(=O)OCCOCCOC)CC(=O)NC(=O)[C@@]1(O)Cc2c(O)c3c(c(O)c2[C@H](OC2CC(N)C(O)C(C)O2)C1)C(=O)c1c(OC)cccc1C3=O (stereo not given in full) | 1.1
